A short description of series [1]: Antibiotic plasma level and bioavailability after oral or enteral (duodenal) administration, rats (bioassay with E. coli 1346). An excerpt: Eine erste in vivo-Testanordnung war wie folgt: Als Versuchsobjekte wurden Menschen und Ratten eingesetzt, die ein β-Lactam-Antibiotikum sowohl oral als auch enteral erhielten. Für die orale Verabreichung wurden die Antibiotika in destilliertem Wasser oder in einem Träger wie Witepsol H15 allein oder zusammen mit CAPMUL MCM 90 und einem Resorptionsverstärker wie Natriumchenodeoxycholat (NaCDC) oder Chenodeoxycholsäure oder Natriumdeoxycholat (NaDC) oder Deoxycholsäure verwendet. In de gleichen Weise wurden die Antibiotika für die enterale Verabreichung hergerichtet und duodenal verabreicht.
Plasmaspiegel der Antibiotika wurden im Blut aus der Armvene des Menschen und der Schwanzvene der Ratte nach Zentrifugieren bestimmt. Die Antibiotika-enthaltenden Blutproben von Ratten wurden durch Bioassay auf einer Nunc-Platte analysiert; E. coli 1346, über Nacht auf einer Antibiotika--Agar Nr. 1-Kultur kultiviert wurde mit Kochsalzlösung gewaschen, wobei eine Suspension mit 90% Durchlässigkeit auf einem Bausch und Lomb-Spectronic 20 (650 nm) hergestellt wurde. 16 ml der erhaltenen Suspension wurden zu 600 ml geschmolzenem Antibiotika-Agar Nr. 1 gegeben, 200 ml des beimpften Agars wurden auf jede Nunc-Platte (243 × 243 ×18 mm) gegeben. Die Agarplatten wurden ausgestanzt, so dass […] Proben in jede Höhlung gegeben werden konnten.
Bei den vorstehend beschriebenen Versuchen wurden Lösungen des Wirkstoffs in destilliertem Wasser bei Raumtemperatur hergestellt und sofern ein Resorptionsverstärker anwesend war, dieser in feinverteilter Form langsam eingeführt, wobei eine feinteilige Suspension erhalten wurde.

In a further series the test system is Ratten. Kind of series: Insulin effect on blood glucose level after injection into the duodenum of fasted, anaesthetised rats. The settings on record: presence of NaCDC in the insulin preparations, summary of Tabelle 2. It is filed as in vivo. The source says:
In dieser Versuchsanordnung wurden Ratten über Nacht fasten gelassen, anästhesiert und der Wirkstoff durch Injektion in das Duodenum verabreicht. Blutproben aus dem Schwanz wurden zu verschiedenen Zeiten entnommen und auf chemisch vorbehandeltem Papier (Chemistrip bg. Boehringer Mannheim Diagnostics) mittels eines Accucheck bg Blutglukosemonitors (Biodynamics, Baltimore) ausgewertet.

Where [2] appears, read: given with Natriumchenodeoxycholat instead of Wasser, summary of Tabelle 1.

SMILES strings stand for the structures.

With `CC1(C)S[C@@H]2[C@H](/N=C/N3CCCCCC3)C(=O)N2[C@H]1C(=O)O` [Amdinocillin], in series [1] (in vivo), the “Spiegel des Antibiotikums” value is recorded as “signifikant höhere Spiegel”. On to `NC(=O)OC[C@@H]1[C@H](NC(=O)/C(=N\OCC(=O)O)c2csc(N)n2)C(=O)N1S(=O)(=O)O` [Carumonam], for which, in series [1] (setting [2]), the “Spiegel des Antibiotikums” value is on record as “signifikant höhere Spiegel”. Consider `Cn1nnnc1SCC1=C(C(=O)O)N2C(=O)[C@@H](NC(=O)[C@H](O)c3ccccc3)[C@H]2SC1` [Cefamandol], for which, in series [1] (setting [2]), the “Spiegel des Antibiotikums” value is on record as “signifikant höhere Spiegel”. For `CO/N=C(\C(=O)N[C@@H]1C(=O)N2C(C(=O)O)=C(CSc3nc(=O)c(=O)[nH]n3C)CS[C@H]12)c1csc(N)n1` [Ceftriaxon], in series [1] (in vivo), the “Resorption von Ceftriaxon” value was “synergistisch verstärkt”, the “Spiegel des Antibiotikums” value is “signifikant höhere Spiegel” and the “Spiegel von Ceftriaxon” value was “erhöht”.

In the case of `CO[C@@]1(NC(=O)C(C(=O)O)c2ccc(O)cc2)C(=O)N2C(C(=O)O)=C(CSc3nnnn3C)CO[C@@H]21` (stereo partly drawn) [Moxalactam], in series [1] (in vivo), the “Spiegel des Antibiotikums” value is “signifikant höhere Spiegel”.

As for `C[C@H](CCC(=O)O)[C@H]1CC[C@H]2[C@@H]3[C@H](O)C[C@@H]4C[C@H](O)CC[C@]4(C)[C@H]3CC[C@]12C` [NaCDC, Natriumchenodeoxycholat], the Blutzucker entry in the series on Ratten is on record as “signifikanten zeitweisen Verminderung des Blutzuckers”.

Consider `C[C@@H](O)[C@H]1C(=O)N2C(C(=O)O)=C(SCCN)C[C@H]12` [Thienamycin], for which, in series [1] (in vivo), the “Spiegel des Antibiotikums” value is “signifikant höhere Spiegel”.
